Laboratory results as given in US10421754B2, “Quinazoline derivative” (CSPC ZHONGQI PHARMACEUTICAL TECHNOLOGY (SHIJIAZHUANG) CO., …, priority 2014, dated 2019).

What was measured:
H292 = assay: In vitro cell experiment (MTT), H292; assay type: cell-based; conditions: NCI-H292, 72 h, human lung carcinoma cells (EGFR1 overexpressing)
Protocol: (§1) Cells in logarithmic growth phase were seeded at a certain density in a 96-well plate (200 μL/well). The cells were allowed to grow for 24 h and subsequently treated with different concentrations of drugs (including a blank group and a control group) and incubated for 72 h at 37° C. Each concentration in a given experiment was tested in triplicate. After 72 h of exposure, 20 μL of the MTT labeling reagent was added to the medium (the final concentration of MTT was 0.5 mg/mL), and the cells were incubated for additional 4 h at 37° C. Following this process, 180 μL of the medium was removed and 130 μL of DMSO was added to each well, or the medium was completely removed and 150 μL of DMSO was added to each well. Then the plate was shaken and mixed in a micro-oscillator. Finally the optical density (OD) of each sample was measured in a micro-plate reader at 550 nm. Cell inhibition rate was calculated according to the following formula: […]
(§2) According to cell inhibition rates, IC50 was calculated by LOGIT method. The experiments were repeated twice and the data was expressed as means±SD.

[1] = Mouse maximum tolerated dose (MTD) experiment; conditions: in vivo, mice, oral, administered 7 days then observed 7 days
Protocol: In the mouse MTD experiment, the mice were administrated with the present compounds.
Healthy mice, having a small difference in body's weights, were chosen. The chosen mice were placed in different layers of cages according to their body's weights. In each layer, the mice were randomly divided into groups. In each group, there were three mice.
The administration dosages were 1000, 500, 250, 125, 62.5 and 31.25 mg/kg respectively and each two dosages differed by a factor of 2. For each of administration dosages, three mice were allotted. The mice were administrated with the present compounds for 7 days and then observed for the next 7 days without the present compounds.
The present compounds were orally administrated with the mice according to the administration dosage and the body weight.

Bel-7402 = assay: In vitro cell experiment (MTT), Bel-7402; assay type: cell-based; conditions: 72 h, human hepatoma carcinoma cells
Protocol: as §1, §2

A375 = assay: In vitro cell experiment (MTT), A375; assay type: cell-based; conditions: A-375, 72 h, human melanoma cells (KDR expressing)
Protocol: as §1, §2

HCC827 = assay: In vitro cell experiment (MTT), HCC827; assay type: cell-based; conditions: 72 h, human non-small cell lung carcinoma (EGFR1 19 exon mutation)
Protocol: as §1, §2

A498 = assay: In vitro cell experiment (MTT), A498; assay type: cell-based; conditions: 72 h, human renal carcinoma cells
Protocol: as §1, §2

SK-OV-3 = assay: In vitro cell experiment (MTT), SK-OV-3; assay type: cell-based; conditions: 72 h, human ovarian carcinoma cells (EGFR2 overexpressing)
Protocol: as §1, §2

HCT116 = assay: In vitro cell experiment (MTT), HCT116; assay type: cell-based; conditions: HCT-116, 72 h, human colon carcinoma cells
Protocol: as §1, §2

A549 = assay: In vitro cell experiment (MTT), A549; assay type: cell-based; conditions: 72 h, human non-small-cell lung carcinoma cells (EGFR1 wildtype)
Protocol: as §1, §2

PC-9 = assay: In vitro cell experiment (MTT), PC-9; assay type: cell-based; conditions: 72 h, human non-small-cell lung carcinoma cells (EGFR1 19 exon mutation)
Protocol: as §1, §2

3T3swiss = assay: In vitro cell experiment (MTT), 3T3swiss; assay type: cell-based; conditions: Fibroblast, 72 h, mouse fibroblasts (PDGFR overexpressing)
Protocol: as §1, §2

TT = assay: In vitro cell experiment (MTT), TT; assay type: cell-based; conditions: 72 h, human thyroid carcinoma cells (RET C634W mutation)
Protocol: as §1, §2

HT-29 = assay: In vitro cell experiment (MTT), HT-29; assay type: cell-based; conditions: 72 h, human colon carcinoma cells (expressing both c-KIT and PDGFR)
Protocol: as §1, §2

CFPAC-1 = assay: In vitro cell experiment (MTT), CFPAC-1; assay type: cell-based; conditions: 72 h, human pancreatic carcinoma cells
Protocol: as §1, §2

Eca109 = assay: In vitro cell experiment (MTT), Eca109; assay type: cell-based; conditions: ECa-109, 72 h, human esophageal carcinoma cells
Protocol: as §1, §2

A431 = assay: In vitro cell experiment (MTT), A431; assay type: cell-based; conditions: A-431, 72 h, human epidermoid carcinoma (EGFR1 overexpressing)
Protocol: as §1, §2

SGC7901 = assay: In vitro cell experiment (MTT), SGC7901; assay type: cell-based; conditions: SGC-7901, 72 h, human gastric carcinoma cells
Protocol: as §1, §2

HUVEC = assay: In vitro cell experiment (MTT), HUVEC; assay type: cell-based; conditions: 72 h, human umbilical vein endothelial cell (KDR overexpressing)
Protocol: as §1, §2

COc1cc2c(Nc3ccc(Br)cc3F)ncnc2cc1OCCCn1ccnc1 [Compound 14, 4-(4-bromo-2-fluoroanilino)-6-methoxy-7-(3-(1H-imidazol-1-yl)propoxy)quinazoline] gave an IC50 (H292) of 37.4 nM, an MTD [1] of 62.5 to 125 mg/kg and an IC50 (Bel-7402) of 5940 nM. It also gave an IC50 (A375) of 161 nM, an IC50 (HCC827) of 8.9 nM and an IC50 (A498) of 2730 nM. The IC50 (SK-OV-3) was 2880 nM and the IC50 (HCT116) was 913 nM.
In the case of COc1cc2c(Nc3ccc(Br)cc3F)ncnc2cc1OCC1CCN(C)CC1 [Vandetanib, reference compound], the IC50 (H292) is reported as 167 nM, the IC50 (A549) is reported as 4450 nM and the IC50 (PC-9) is reported as 14.9 nM. For the same molecule, the IC50 (Bel-7402) was 6850 nM, the IC50 (3T3swiss) was 2530 nM and the IC50 (TT) was 192 nM. For the same molecule, the IC50 (HCC827) was 19.3 nM, the IC50 (HT-29) was 3230 nM and the IC50 (CFPAC-1) was 6260 nM. It also gave an IC50 (Eca109) of 6860 nM, an IC50 (A498) of 2960 nM and an IC50 (A431) of 3230 nM. The IC50 (SGC7901) was 6850 nM, the IC50 (SK-OV-3) was 3510 nM and the IC50 (HCT116) was 1210 nM.
COc1cc2c(Nc3ccc(F)c(Cl)c3)ncnc2cc1OCCN1CCCC1 [Compound 20, 4-(3-chloro-4-fluoroanilino)-6-methoxy-7-(2-(pyrrolidine-1-yl)ethoxy)quinazoline] showed an IC50 (A549) of 2680 nM, an MTD [1] of 125 to 250 mg/kg and an IC50 (Bel-7402) of 5740 nM. For the same molecule, the IC50 (3T3swiss) was 1720 nM, the IC50 (HCC827) was 2.9 nM and the IC50 (HT-29) was 2230 nM. For the same molecule, the IC50 (A431) was 2140 nM.
COc1cc2c(Nc3ccc(F)c(Cl)c3)ncnc2cc1OCCCCCC(N)=O [Compound 24, 6-(4-(3-chloro-4-fluoroanilino)-6-methoxyquinazolin-7-yl-oxy)hexanamide] showed an IC50 (H292) of 81.8 nM, an IC50 (A549) of 2940 nM and an MTD [1] of 125 to 250 mg/kg. The IC50 (HCC827) was 5.6 nM, the IC50 (HT-29) was 1840 nM and the IC50 (SK-OV-3) was 2450 nM.
Work on COc1cc2c(Nc3ccc(Br)cc3F)ncnc2cc1OCC1CCOCC1 [Compound 15, 4-(4-bromo-2-fluoroanilino)-6-methoxy-7-((tetrahydropyran-4-yl)methoxy)quinazoline] yielded an IC50 (A431) of 2950 nM.
For COc1cc2c(Nc3ccc(Br)cc3F)ncnc2cc1OCCn1ccnc1 [Compound 34, 4-(4-bromo-2-fluoroanilino)-6-methoxy-7-(2-(1H-imidazol-1-yl)ethoxy)quinazoline], the IC50 (H292) was 90.8 nM, the IC50 (A549) was 1290 nM and the MTD [1] was 125 to 250 mg/kg. The IC50 (PC-9) was 5.7 nM and the IC50 (HCC827) was 8.2 nM.
With COc1cc2c(Nc3ccc(Br)cc3F)ncnc2cc1OCc1ccc2c(c1)OCO2 [Compound 1, 4-(4-bromo-2-fluoroanilino)-6-methoxy-7-((1,3-benzodioxole-5-yl)methoxy)quinazoline] the MTD [1] was 500 to 1000 mg/kg, the IC50 (HT-29) was 2820 nM and the IC50 (A431) was 1410 nM.
COc1cc2c(Nc3ccc(Br)cc3F)ncnc2cc1OCCCC(N)=O [Compound 23, 4-(4-(4-bromo-2-fluoroanilino)-6-methoxyquinazolin-7-yl-oxy)butanamide] gave an IC50 (A549) of 1410 nM, an IC50 (3T3swiss) of 2150 nM and an IC50 (HCC827) of 5 nM. It also gave an IC50 (SK-OV-3) of 3360 nM.
In the case of COc1cc2c(Nc3ccc(Br)cc3F)ncnc2cc1OCCCCCC(=O)N(C)C [Compound 32, N, N-dimethyl-6-(4-(4-bromo-2-fluoroanilino)-6-methoxyquinazolin-7-yloxy)hexanamide], the IC50 (A549) is reported as 2700 nM, the MTD [1] is reported as 500 to 1000 mg/kg and the IC50 (PC-9) is reported as 6.7 nM. For the same molecule, the IC50 (HCC827) was 11 nM.
COc1cc2c(Nc3ccc(F)c(Cl)c3)ncnc2cc1OCc1cnc(C)s1 [Compound 27, 4-(3-chloro-4-fluoroanilino)-6-methoxy-7-((2-methylthiazol-5-yl)methoxy)quinazoline] gave an IC50 (H292) of 78.3 nM, an IC50 (A549) of 3890 nM and an MTD [1] of 500 to 1000 mg/kg. The IC50 (HCC827) was 4.6 nM and the IC50 (HT-29) was 2920 nM.
Molecule COc1cc2c(Nc3ccc(Br)cc3F)ncnc2cc1OCCCCC(N)=O [Compound 33, 5-(4-(4-bromo-2-fluoroanilino)-6-methoxyquinazolin-7-yl-oxy)pentanamide] has an IC50 (H292) of 73.4 nM, an IC50 (A549) of 3570 nM and an MTD [1] of 62.5 to 125 mg/kg. It also gave an IC50 (PC-9) of 8.3 nM and an IC50 (HCC827) of 9.5 nM.
In the case of COc1cc2c(Nc3ccc(Br)cc3F)ncnc2cc1OCCN1CCCC1 [Compound 2, 4-(4-bromo-2-fluoroanilino)-6-methoxy-7-((2-pyrrolidine-1-yl)ethoxy)quinazoline], the IC50 (H292) is reported as 46.3 nM, the IC50 (HUVEC) is reported as 40.4 nM and the IC50 (A375) is reported as 185 nM. For the same molecule, the IC50 (HCC827) was 5.6 nM, the IC50 (Eca109) was 5800 nM and the IC50 (HCT116) was 1080 nM.
In the case of COc1cc2c(Nc3ccc(Br)cc3F)ncnc2cc1OCCCCCC(N)=O [Compound 6, 6-(4-(4-bromo-2-fluoroanilino)-6-methoxyquinazolin-7-yl-oxy)hexanamide], the IC50 (H292) is reported as 46.9 nM, the IC50 (A549) is reported as 3930 nM and the MTD [1] is reported as greater than 1000 mg/kg. It also gave an IC50 (HUVEC) of 37.6 nM, an IC50 (HCC827) of 4.7 nM and an IC50 (A431) of 2100 nM. It also gave an IC50 (SK-OV-3) of 2650 nM.
